This test has as its target T1, EGFR kinase (Homo sapiens, UniProt P00533).
T1 construct: purchased Cell signaling technology #7908
Kind of test: EGFR Kinase Assay. To be noted: 20 μM ATP, 25° C. 45 minutes. It is filed as biochemical. On the procedure: EGFR kinase activity in vitro was measured as described below:
a. Wash Buffer (PBS-T Buffer): 1×PBS (137 mM NaCl, 2.7 mM KCl, 4.3 mM Na2HPO4, 1.4 mM KH2PO4, adjust the pH to 7.2) and 0.05% Tween-20.
b. 1% Bovine Serum Albumin (BSA, Calbiochem #136593) in PBS-T.
c. Stop Buffer: 50 mM EDTA, pH 8.0
d. DELFIA® Europium-labeled Anti-mouse IgG (PerkinElmer Life Sciences #AD0124)
e. DELFIA® Enhancement Solution (PerkinElmer Life Sciences #1244-105)
f. DELFIA® Streptavidin coated, 96-well, yellow plate (PerkinElmer Life Sciences #AAAND-0005)
g. EGFR kinase (supplied in 50 mM Tris-HCl (pH 8.0), 100 mM NaCl, 5 mM DTT, 15 mM reduced glutathione and 20% glycerol. Cell signaling technology #7908).
h. 10 mM ATP solution (Cell signaling technology #9804).
i. PTP1B (Tyr66) Biotinylated Peptide (Cell signaling technology #1325).
j. Phospho-Tyrosine Mouse mAb (P-Tyr-100) (Cell signaling technology #9411).
k. HTScan™ Tyrosine Kinase Buffer (4×)
(Cell signaling technology #9805).
l. 1.25 M DTT (1000×) (Cell signaling technology).
The following protocol was used:
1. Dilute test compound with DMSO to the desired final assay concentration.
2. Dilute 6 μM substrate peptide (Tyr66) 1:1 with dH2O, add 15 μl to every assay.
3. Immediately transfer EGFR enzyme from −80° C. to ice. Allow enzyme to thaw on ice.
4. Take 3 μg EGFR enzyme to the enzyme tube.
5. Add 10 μl of DTT (1.25 M) to 2.5 ml of 4×HTScan™ Tyrosine Kinase Buffer (240 mM HEPES pH 7.5, 20 mM MgCl2, 20 mM MnCl2, 12 μM Na3VO4) to make DTT/Kinase buffer.
6. Transfer 0.75 ml of DTT/Kinase buffer to each enzyme tube to make 4× reaction cocktail. Add 7.5 μl 4× reaction cocktail to every assay.
7. Add 4 μl ATP (10 mM) to 496 μl dH2O, take 7.5 μl for every assay.
Final Assay Conditions for a 30 μl Reaction
Incubate reaction tube at 25° C. for 45 minutes. 9. Add 30 μl/assay stop buffer (50 mM EDTA, pH 8.0) to stop the reaction. 10. Transfer 25 μl of each reaction and 75 μl dH2O/well to a 96-well streptavidin coated plate and incubate, with shaking at room temperature for 60 minutes. 11. Wash three times with 200 μl/well PBS-T buffer. Pat plate on paper towel to remove excess liquid. 12. Dilute primary antibody, Phospho-Tyrosine mAb (P-Tyr-100), 1:1000 in PBS-T buffer with 1% BSA. Add 100 μl diluted primary antibody to each well. 13. Incubate, with shaking at room temperature for 60 minutes. 14. Wash as described above in step 11. 15. Dilute Europium labeled anti-mouse IgG 1:500 in PBS-T buffer with 1% BSA. Add 100 μl diluted antibody to each well. 16. Incubate, with shaking at room temperature for 30 minutes. 17. Wash five times with 200 μl/well PBS-T buffer. Pat plate on paper towel to remove excess liquid. 18. Add 100 μl/well DELFIA® Enhancement Solution. 19. Incubate, with shaking at room temperature for 5 minutes. 20. Detect 615 nm fluorescence emission with appropriate Time-Resolved Plate Reader.
Calculate the inhibition rate: IR (%)=100−100*(X−B)/(N−B)
X=the fluorescence value of the well contained test compound
The IC50 value can be derived from the IRs of compounds at different concentration gradients.

The structures appear in SMILES notation.

T1 sequence (P00533 25-1210): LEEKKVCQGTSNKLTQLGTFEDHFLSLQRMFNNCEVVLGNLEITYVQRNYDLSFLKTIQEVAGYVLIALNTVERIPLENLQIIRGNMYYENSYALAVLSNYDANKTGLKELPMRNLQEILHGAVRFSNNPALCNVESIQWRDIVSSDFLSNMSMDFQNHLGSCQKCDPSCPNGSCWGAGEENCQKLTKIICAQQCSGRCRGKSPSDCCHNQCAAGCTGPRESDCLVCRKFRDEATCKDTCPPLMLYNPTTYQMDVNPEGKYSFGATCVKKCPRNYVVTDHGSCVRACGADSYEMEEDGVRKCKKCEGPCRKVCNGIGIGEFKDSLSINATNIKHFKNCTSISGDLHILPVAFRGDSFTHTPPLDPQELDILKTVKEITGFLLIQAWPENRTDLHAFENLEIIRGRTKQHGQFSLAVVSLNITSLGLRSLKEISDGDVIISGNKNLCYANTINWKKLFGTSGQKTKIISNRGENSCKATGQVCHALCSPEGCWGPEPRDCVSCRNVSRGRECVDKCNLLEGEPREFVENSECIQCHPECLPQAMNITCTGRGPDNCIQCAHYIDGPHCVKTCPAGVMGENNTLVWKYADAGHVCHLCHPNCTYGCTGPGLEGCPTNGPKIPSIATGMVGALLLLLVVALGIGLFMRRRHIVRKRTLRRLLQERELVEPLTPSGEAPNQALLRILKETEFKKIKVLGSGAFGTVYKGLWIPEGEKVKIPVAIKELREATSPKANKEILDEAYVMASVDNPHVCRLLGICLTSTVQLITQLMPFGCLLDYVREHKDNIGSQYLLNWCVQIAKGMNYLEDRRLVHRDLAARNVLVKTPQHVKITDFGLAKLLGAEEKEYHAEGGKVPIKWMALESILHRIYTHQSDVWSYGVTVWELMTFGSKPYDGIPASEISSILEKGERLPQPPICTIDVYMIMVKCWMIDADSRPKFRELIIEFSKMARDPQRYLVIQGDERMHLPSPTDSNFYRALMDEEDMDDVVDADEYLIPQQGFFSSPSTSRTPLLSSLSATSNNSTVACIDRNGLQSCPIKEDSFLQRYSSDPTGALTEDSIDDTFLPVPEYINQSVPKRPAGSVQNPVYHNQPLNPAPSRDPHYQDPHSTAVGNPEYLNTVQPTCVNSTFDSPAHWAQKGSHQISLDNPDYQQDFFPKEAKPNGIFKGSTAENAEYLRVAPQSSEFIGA

`CCN(CC)CCN1CCc2[nH]c(/C=C3\C(=O)Nc4ncnc(Nc5ccc(F)c(Cl)c5)c43)c(C)c2C1=O` [Example 12, 4-(3-Chlor O-4-fluoro-phenylamino)-5-[5-(2-diethylamino-ethyl)-3-methyl-4-oxo-4,5,6,7-tetrahydro-1H-pyrrolo[3,2-c]pyridine-2-ylmethylene]-5,7-dihydro-pyrrolo[2,3-d]pyrimidin-6-one] showed an IC50 of 60 nM. In turn, `Cc1c(/C=C2\C(=O)Nc3ncnc(Nc4ccc(F)c(Cl)c4)c32)[nH]c2c1C(=O)N(CCN1CCOCC1)CC2` [Example 24, 4-(3-Chloro-4-fluoro-phenylamino)-5-[3-methyl-5-(2-morpholin-4-yl-ethyl)-4-oxo-4,5,6,7-tetrahydro-1H-pyrrolo[3,2-c]pyridine-2-ylmethylenene]-5,7-dihydro-pyrrolo[2,3-d]pyrimidin-6-one] returned an IC50 of 310 nM. Take `CCN(CC)CCN1CCc2[nH]c(/C=C3\C(=O)Nc4cccc(Br)c43)c(C)c2C1=O` [Example 30, 2-(4-Bromo-2-oxo-1,2-dihydro-indol-3-ylidenemethyl)-5-(2-diethylamino-ethyl)-3-methyl-1,5,6,7-tetrahydro-pyrrolo[3,2-c]pyridin-4-one]: the IC50 was 4950 nM.

Compound `CCN(CC)CCN1CCc2[nH]c(/C=C3\C(=O)Nc4cccc(C5CCNCC5)c43)c(C)c2C1=O` [Example 31, 5-(2-Diethylamino-ethyl)-3-methyl-2-(2-oxo-4-piperidin-4-yl-1,2-dihydro-indol-3-ylidenemethyl)-1,5,6,7-tetrahydro-pyrrolo[3,2-c]pyridin-4-one] came in with an IC50 of 210 nM. `CCN(CC)CCN1CCc2[nH]c(/C=C3\C(=O)Nc4cccc(-c5ccc(Cl)cc5F)c43)c(C)c2C1=O` [Example 34, 2-[4-(4-Chloro-2-fluoro-phenyl)-2-oxo-1,2-dihydro-indol-3-ylidenemethyl]-5-(2-diethylamino-ethyl)-3-methyl-1,5,6,7-tetrahydro-pyrrolo[3,2-c]pyridin-4-one] showed a concentration for half-maximal inhibition (IC50) of 940 nM. The same measure for `CCN(CC)CCN1CCc2[nH]c(/C=C3\C(=O)Nc4ccc(OC)cc43)c(C)c2C1=O` [Example 35, 5-(2-Diethylamino-ethyl)-2-(5-methoxy-2-oxo-1,2-dihydro-indol-3-ylidenemethyl)-3-methyl-1,5,6,7-tetrahydro-pyrrolo[3,2-c]pyridin-4-one]: 3320 nM. For `CCN(CC)CCN1CCc2[nH]c(/C=C3\C(=O)Nc4cccc(-c5cccc(Cl)c5F)c43)c(C)c2C1=O` [Example 36, 2-[4-(3-Chloro-2-fluoro-phenyl)-2-oxo-1,2-dihydro-indol-3-ylidenemethyl]-5-(2-diethylamino-ethyl)-3-methyl-1,5,6,7-tetrahydro-pyrrolo[3,2-c]pyridin-4-one] the value was 180 nM. `CCN(CC)CCN1CCc2[nH]c(/C=C3\C(=O)Nc4cccc(CCO)c43)c(C)c2C1=O` [Example 37, 5-(2-Diethylamino-ethyl)-2-[4-(2-hydroxy-ethyl)-2-oxo-1,2-dihydro-indol-3-ylidenemethyl]-3-methyl-1,5,6,7-tetrahydro-pyrrolo[3,2-c]pyridin-4-one] had an IC50 of 2890 nM. On to `CCN(CC)CCN1CCc2[nH]c(/C=C3\C(=O)Nc4cccc(-c5cccc(F)c5F)c43)c(C)c2C1=O` [Example 39, 5-(2-diethylamino-ethyl)-2-[4-(2,3-difluoro-phenyl)-2-oxo-1,2-dihydro-indol-3-ylidenemethyl]-3-methyl-1,5,6,7-tetrahydro-pyrrolo[3,2-c]pyridin-4-one], for which the IC50 is 340 nM. For `Cc1c(/C=C2\C(=O)Nc3ccc(Br)cc32)[nH]c2c1C(=O)N(CCN1CCCC1)CC2` [Example 40, 2-(5-Bromo-2-oxo-1,2-dihydro-indol-3-ylidenemethyl)-3-methyl-5-(2-pyrrolidin-1-yl-ethyl)-1,5,6,7-tetrahydro-pyrrolo[3,2-c]pyridin-4-one] the value was 760 nM; for `Cc1c(/C=C2\C(=O)Nc3ncc(Br)cc32)[nH]c2c1C(=O)N(CCN1CCOCC1)CC2` [Example 50, 2-(5-Bromo-2-oxo-1,2-dihydro-pyrrolo[2,3-b]pyridin-3-ylidenemethyl)-3-methyl-5-(2-morpholin-4-yl-ethyl)-1,5,6,7-tetrahydro-pyrrolo[3,2-c]pyridin-4-one], 510 nM.
